Test results reported in ChEMBL document CHEMBL1201862, “PubChem BioAssay data set” (2004).
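Grown in 96-well plates, cells were treated for 48 hours with each compound at five concentrations. Insufficient inhibition: endpoint recorded as highest concentration tested. Abbreviation: GI50, concentration required for 50% inhibition of growth.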 Active and inactive are the calls of the source. Rule as the data show it: active = GI50 up to about 1.1 µM and inactive = higher.

Legend:
Experiment in all cases: DTP human tumour cell line panel, 48 h
CAKI-1 = test system: CAKI-1
M14 = test system: M14
NCI-H460 = test system: NCI-H460
SK-MEL-28 = test system: SK-MEL-28
SK-MEL-2 = test system: SK-MEL-2
NCI/ADR-RES = test system: NCI/ADR-RES
OVCAR-4 = test system: OVCAR-4
PC-3 = test system: PC-3
MDA-MB-435 = test system: MDA-MB-435
ACHN = test system: ACHN
IGROV-1 = test system: IGROV-1
SNB-75 = test system: SNB-75
A498 = test system: A498
RXF 393 = test system: RXF 393
786-0 = test system: 786-0
SR = test system: SR
COLO 205 = test system: COLO 205
MDA-MB-231 = test system: MDA-MB-231
KM12 = test system: KM12
OVCAR-3 = test system: OVCAR-3

Measured: GI50

O=C(c1cscc1CCc1ccccc1)c1cscc1CCc1ccccc1
inactive: CAKI-1 > 100 µM | M14 > 100 µM | NCI-H460 > 100 µM | SK-MEL-28 > 100 µM | SK-MEL-2 > 100 µM | NCI/ADR-RES > 100 µM | OVCAR-4 > 100 µM | PC-3 > 100 µM | MDA-MB-435 > 100 µM | ACHN > 100 µM | IGROV-1 31.6 µM | SNB-75 > 100 µM | A498 > 100 µM | RXF 393 > 100 µM | 786-0 > 100 µM | SR 80 µM | COLO 205 > 100 µM | MDA-MB-231 > 100 µM | KM12 > 100 µM

Cc1ccc(S(=O)(=O)N2C[C@@H]3CC[C@]4(CO[Si](C)(C)C(C)(C)C)N[C@@H](c5ccccc5)[C@H]2[C@H]34)cc1
inactive: CAKI-1 27.2 µM | M14 61.7 µM | NCI-H460 26.1 µM | SK-MEL-28 > 100 µM | SK-MEL-2 48.2 µM | NCI/ADR-RES 25.9 µM | OVCAR-4 26.5 µM | PC-3 18.2 µM | MDA-MB-435 39.2 µM | OVCAR-3 32 µM | ACHN 37.2 µM | IGROV-1 31.3 µM | A498 48.8 µM | RXF 393 14.5 µM | 786-0 27.8 µM | SR 16.2 µM | COLO 205 17.6 µM | MDA-MB-231 28.1 µM | KM12 26.5 µM

C/C(=C/CC[C@]1(CO)CC[C@]2(CO)[C@H](CC[C@@H]3[C@@]4(C)CC[C@H](OC5OCC(O)C(O)C5OC5OC(CO)C(O)C(O)C5O)C(C)(C)[C@@H]4CC[C@]32C)[C@H]1O)CO (stereo partly specified)
inactive: CAKI-1 > 100 µM | M14 > 100 µM | NCI-H460 > 100 µM | SK-MEL-28 > 100 µM | NCI/ADR-RES > 100 µM | OVCAR-4 > 100 µM | PC-3 > 100 µM | MDA-MB-435 > 100 µM | OVCAR-3 > 100 µM | ACHN > 100 µM | IGROV-1 > 100 µM | SNB-75 > 100 µM | A498 > 100 µM | RXF 393 > 100 µM | 786-0 > 100 µM | SR > 100 µM | COLO 205 > 100 µM | MDA-MB-231 > 100 µM | KM12 > 100 µM

O=c1oc2ccccc2cc1-c1nc2ccccc2c(=O)[nH]1
inactive: CAKI-1 > 100 µM | M14 > 100 µM | NCI-H460 > 100 µM | SK-MEL-28 > 100 µM | SK-MEL-2 > 100 µM | NCI/ADR-RES > 100 µM | OVCAR-4 > 100 µM | PC-3 > 100 µM | MDA-MB-435 > 100 µM | ACHN 90.8 µM | IGROV-1 > 100 µM | SNB-75 69.3 µM | RXF 393 > 100 µM | 786-0 > 100 µM | SR > 100 µM | COLO 205 > 100 µM | MDA-MB-231 > 100 µM | KM12 > 100 µM

COC(=O)[C@]1(C)CCC[C@@]2(C)C1CC[C@]13C=C(C(C)C)[C@H](CC21)CC3(Cl)C#N (stereo partly specified)
inactive: CAKI-1 66.1 µM | M14 38.4 µM | NCI-H460 41.7 µM | SK-MEL-28 36.1 µM | NCI/ADR-RES 57.7 µM | OVCAR-4 54.6 µM | PC-3 18.9 µM | MDA-MB-435 42.6 µM | OVCAR-3 35 µM | ACHN 43.9 µM | IGROV-1 > 100 µM | SNB-75 4.24 µM | A498 > 100 µM | RXF 393 24.8 µM | 786-0 > 100 µM | SR 32.1 µM | COLO 205 41.6 µM | MDA-MB-231 42.2 µM | KM12 38.1 µM

CC1(C)N=C(/C=N/O)C(C)(C)N1O
inactive: M14 > 100 µM | NCI-H460 > 100 µM | SK-MEL-28 > 100 µM | SK-MEL-2 > 100 µM | NCI/ADR-RES > 100 µM | OVCAR-4 > 100 µM | PC-3 > 100 µM | MDA-MB-435 > 100 µM | OVCAR-3 > 100 µM | ACHN > 100 µM | IGROV-1 > 100 µM | SNB-75 > 100 µM | A498 > 100 µM | RXF 393 > 100 µM | 786-0 > 100 µM | SR > 100 µM | COLO 205 > 100 µM | MDA-MB-231 > 100 µM | KM12 > 100 µM

COc1ncc(/C=C2\OC(=O)c3ccccc32)c(OC)n1
inactive: M14 72.3 µM | NCI-H460 17.9 µM | SK-MEL-28 56.1 µM | NCI/ADR-RES 40.5 µM | PC-3 39 µM | MDA-MB-435 77.8 µM | OVCAR-3 24.9 µM | ACHN 24.4 µM | IGROV-1 4.48 µM | SNB-75 6.44 µM | A498 12.3 µM | RXF 393 7 µM | 786-0 9.1 µM | SR 30.1 µM | COLO 205 > 100 µM | MDA-MB-231 > 100 µM | KM12 > 100 µM
active: CAKI-1 0.21 µM
